Patent US20090042969A1, “Use of Specific Trifluoromethyl Ketones for Preventing and Treating Pancreatitis” (priority 2005, published 2009)
Entries after “also recorded” stand apart in the source; their conditions may differ. Read-outs that look alike come from different tables or passages of the source.

Legend:
[1] = tested on: caerulein-induced pancreatitis; assay: Morphological damage of the pancreas in caerulein-induced pancreatitis; type: in vivo, rat
Procedure: (§1) Male Wistar rats (140 to 250 g) were anesthetized with pentobarbital (30 mg/kg). A cannula was placed in the jugular vein, and a supramaximal concentration of caerulein (10 μg/kg per hour) was administered to the animals by infusion for four and twelve hours. […] Animals which received a saline solution as infusion and were fed with compound II through a tube served as control. Each treatment group consisted of five animals. After the exsanguination under ether anesthesia, the pancreas was quickly removed and freed of fat, and tissue blocks were fixed in 5% paraformaldehyde for the histology in paraffin-embedded sections. The largest portion of the pancreas was frozen in liquid nitrogen and stored at −80° C. for later protein analysis and for detection of the enzyme activity.
(§2) The animals were sacrificed after four and twelve hours, and pancreatic tissue, serum and lung tissue were collected for further analyses (see FIG. 2).

[2] = tested on: caerulein-induced pancreatitis; assay: Myeloperoxidase activity and morphology of the lung during caerulein-induced pancreatitis; type: in vivo, rat
Procedure: as §1, §2
Pancreatitis influences not only the pancreas but also leads to a systemic inflammatory response which affects other organs such as the kidneys or the lung. […] The morphological differences in the lung tissues during caerulein-induced pancreatitis consisted of accumulations of alveolar fluid and a progressive thickening, hyperemia and neutrophil infiltration of the intraalveolar tissue. […]

[3] = biological target: T1, cathepsin L (Homo sapiens, UniProt P07711); assay: In vitro inhibitor specificity: cathepsin L activity; type: biochemical; settings: compound II 1 nM to 1 mM
T1 construct: prepared from human liver; purchased Calbiochem; host or cells: prepared from human liver
T1 sequence (P07711 114-333): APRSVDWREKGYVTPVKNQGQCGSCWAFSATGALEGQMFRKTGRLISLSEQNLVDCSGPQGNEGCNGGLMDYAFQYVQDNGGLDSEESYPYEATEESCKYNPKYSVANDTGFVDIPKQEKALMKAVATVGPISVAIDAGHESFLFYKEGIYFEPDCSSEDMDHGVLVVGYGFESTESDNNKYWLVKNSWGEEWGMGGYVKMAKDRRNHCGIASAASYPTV

[4] = biological target: T2, cathepsin B (Homo sapiens, UniProt P07858); assay: In vitro inhibitor specificity: cathepsin B activity; type: biochemical; settings: compound II 1 nM to 1 mM
T2 construct: This commercial product was purified from human liver by HPLC; purchased Calbiochem; host or cells: purified from human liver

[5] = biological target: T3, myeloperoxidase (Homo sapiens, UniProt P05164); assay: In vitro inhibitor specificity: myeloperoxidase activity; type: biochemical; settings: compound II 1 nM to 1 mM
T3 construct: purified from blood by HPLC; purchased Calbiochem; host or cells: purified from blood
T3 sequence (P05164 279-745 limits assumed): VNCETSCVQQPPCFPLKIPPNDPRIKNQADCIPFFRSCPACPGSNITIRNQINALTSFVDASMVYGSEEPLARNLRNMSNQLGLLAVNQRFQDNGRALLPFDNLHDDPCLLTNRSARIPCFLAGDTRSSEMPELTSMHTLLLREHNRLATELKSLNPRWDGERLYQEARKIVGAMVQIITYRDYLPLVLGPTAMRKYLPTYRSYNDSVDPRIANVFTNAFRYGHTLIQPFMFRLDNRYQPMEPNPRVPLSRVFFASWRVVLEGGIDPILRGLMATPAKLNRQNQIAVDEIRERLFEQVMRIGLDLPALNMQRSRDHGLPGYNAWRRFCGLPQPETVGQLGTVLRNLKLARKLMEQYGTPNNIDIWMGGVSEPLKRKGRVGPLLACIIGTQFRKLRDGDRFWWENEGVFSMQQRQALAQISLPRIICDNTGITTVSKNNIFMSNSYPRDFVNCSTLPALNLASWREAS
T3 sequence (P05164 165-273 limits assumed): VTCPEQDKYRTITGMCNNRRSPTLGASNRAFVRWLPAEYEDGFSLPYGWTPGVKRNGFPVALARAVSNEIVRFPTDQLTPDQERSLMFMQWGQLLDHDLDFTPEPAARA
Procedure: (§3) Caerulein was obtained from Pharmacia, Freiburg, Germany. Human neutrophil elastase was purchased from Calbiochem (San Diego, Calif., U.S.A.). This commercial product was purified from human serum by HPLC (protein concentration >20 units/mg of protein specific activity; in 50 mM sodium acetate pH 5.5 and 200 mM sodium chloride; purity >95%). Human myeloperoxidase was purchased from Calbiochem and purified from blood by HPLC (1 mg/10 ml protein concentration, 150 to 200 units mg protein specific protein activity, in 100 mM sodium chloride, 50 mM sodium acetate, purity >95%). Porcine pancreatic elastase was purchased from Calbiochem and was purified from porcine pancreas. […]
(§4) The trypsin activity (10 mU), myeloperoxidase activity (100 mU) and the neutrophil elastase activity (10 mU) was determined by using the specific fluorogenic substrates [CBZ-Ile-Pro-Arg]2-rhodamine 110 or [CBZ-Ala4]-aminomethylcoumarin (AMC) in 100 mM tris-HCl buffer (pH 8.0), which contained 5 mM CaCl2, 10 μM substrate (final concentration) and 10 mU of bovine trypsin in a volume of 150 μl, at an excitation wavelength of 485 nm and an emission wavelength of 530 nm or an excitation wavelength of 350 nm and an emission wavelength of 460 nm at 37° C. The initial rates of the substrate hydrolysis were measured as arbitrary fluorescence units per minute. […]

[6] = tested on: caerulein-induced pancreatitis; assay: Myeloperoxidase activity in pancreatic homogenates in caerulein-induced pancreatitis; type: in vivo, rat; settings: oral 240 mg/kg per day
Procedure: as §1, §2
To measure the myeloperoxidase (MPO) activity, the tissue was thawed and homogenized on ice in 20 mM potassium phosphate buffer (pH 7.4) and centrifuged at 20 000 g at 4° C. for 10 minutes. The pellet was resuspended in […] potassium phosphate buffer (pH 6.0) which contained 0.5% cethyltrimethylammonium bromide. […]
The original increase in the absorption at 450 nm was measured at room temperature using a Dynatech MR 5000 ELISA reader. […]

[7] = tested on: caerulein-induced pancreatitis; assay: Serum amylase activity (hyperamylasemia) in caerulein-induced pancreatitis; type: in vivo, rat; settings: oral administration; four and twelve hours of pancreatitis
Procedure: as §1, §2

[8] = biological target: T4, pancreatic elastase (Sus scrofa, UniProt P00772); assay: In vitro inhibitor specificity: pancreatic elastase activity; type: biochemical, porcine
T4 construct: was purified from porcine pancreas; purchased Calbiochem; host or cells: purified from porcine pancreas
T4 sequence (P00772 27-266): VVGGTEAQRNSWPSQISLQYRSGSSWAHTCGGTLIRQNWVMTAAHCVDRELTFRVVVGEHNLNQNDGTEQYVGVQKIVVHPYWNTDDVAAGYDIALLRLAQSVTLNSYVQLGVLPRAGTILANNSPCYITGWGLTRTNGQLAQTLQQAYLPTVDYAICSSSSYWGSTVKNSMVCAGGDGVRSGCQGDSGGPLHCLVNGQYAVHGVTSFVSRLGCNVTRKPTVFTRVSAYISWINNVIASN
Procedure: as §3, §4

[9] = biological target: T5, human neutrophil elastase (Homo sapiens, UniProt P08246); assay: In vitro inhibitor specificity: neutrophil elastase activity; type: biochemical
T5 construct: This commercial product was purified from human serum by HPLC; purchased Calbiochem; host or cells: purified from human serum
T5 sequence (P08246 30-267): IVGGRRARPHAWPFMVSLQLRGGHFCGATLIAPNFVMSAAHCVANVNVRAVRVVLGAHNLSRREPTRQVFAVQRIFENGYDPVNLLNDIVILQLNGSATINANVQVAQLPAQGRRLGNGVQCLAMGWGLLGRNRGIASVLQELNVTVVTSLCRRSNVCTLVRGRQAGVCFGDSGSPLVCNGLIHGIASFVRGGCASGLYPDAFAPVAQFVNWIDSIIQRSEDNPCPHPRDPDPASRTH
Procedure: Human neutrophil elastase was purchased from Calbiochem (San Diego, Calif., U.S.A.). This commercial product was purified from human serum by HPLC (protein concentration >20 units/mg of protein specific activity; in 50 mM sodium acetate pH 5.5 and 200 mM sodium chloride; purity >95%). […] Porcine pancreatic elastase was purchased from Calbiochem and was purified from porcine pancreas. The specific activity was 50 units/mg of protein in 50 mM potassium phosphate buffer, pH 7.0. […]

[10] = Pharmacokinetics (half-life, AUC, bioavailability); design: species or system rats, hamsters and dogs; settings: rat, hamster, dog, in vivo
[11] = biological target: T6, trypsin (Bos taurus, UniProt P00760); assay: In vitro inhibitor specificity: trypsin activity; type: biochemical, bovine; settings: compound II 1 nM to 1 mM
T6 sequence (P00760 24-246): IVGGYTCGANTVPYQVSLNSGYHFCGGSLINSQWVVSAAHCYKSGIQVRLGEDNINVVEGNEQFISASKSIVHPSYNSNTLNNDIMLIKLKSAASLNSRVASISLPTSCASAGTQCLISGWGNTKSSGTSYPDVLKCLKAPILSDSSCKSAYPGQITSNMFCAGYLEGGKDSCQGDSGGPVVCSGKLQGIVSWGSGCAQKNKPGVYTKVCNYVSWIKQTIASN
Procedure: The trypsin activity (10 mU), myeloperoxidase activity (100 mU) and the neutrophil elastase activity (10 mU) was determined by using the specific fluorogenic substrates [CBZ-Ile-Pro-Arg]2-rhodamine 110 or [CBZ-Ala4]-aminomethylcoumarin (AMC) in 100 mM tris-HCl buffer (pH 8.0), which contained 5 mM CaCl2, 10 μM substrate (final concentration) and 10 mU of bovine trypsin in a volume of 150 μl, at an excitation wavelength of 485 nm and an emission wavelength of 530 nm or an excitation wavelength of 350 nm and an emission wavelength of 460 nm at 37° C. The initial rates of the substrate hydrolysis were measured as arbitrary fluorescence units per minute. The cathepsin B activity (100 mU) and cathepsin L activity (100 mU) were then determined in 0.25 M sodium acetate buffer (pH 5.0), which contained 2 mM EDTA 1 mM DTT, 10 μM of the specific substrate CBZ-[Arg]2-aminomethylcoumarin or 10 μM [CBZ-Phe-Arg]-rhodamine 110 (final concentration) in a final volume of 150 μl, at an excitation wavelength of 350 nm and an emission wavelength of 460 nm or 485 nm and an emission wavelength of 530 nm at 37° C.
The results were calculated in percent of the initial enzyme activity (Kukor et al., 2002).

[12] = tested on: caerulein-induced pancreatitis; assay: Pancreatic water content (edema) in caerulein-induced pancreatitis; type: in vivo, rat; settings: oral 240 mg/kg per day
Procedure: as §1, §2
Determination of the pancreatic water content: the water content of the pancreas was determined by comparing the freshly obtained tissue (wet weight) with the weight of the same sample after drying (dry weight). In order to ensure complete drying, the tissue was incubated at […] for 24 hours, a constant weight being reached. The results were represented as percentage of the difference between the wet weight and the dry weight divided by the original wet weight.

[13] = tested on: neutrophil elastase; assay: Inhibition of neutrophil elastase after oral or intravenous administration; type: in vivo
[14] = compound II together with caerulein

influence on cathepsin L activity [3]: not significantly influenced
influence on cathepsin L activity ([3]; listed as Compound II): does not inhibit
influence on cathepsin B activity [4]: not significantly influenced
influence on cathepsin B activity ([4]; listed as Compound II): does not inhibit
influence on myeloperoxidase activity ([5]; listed as Compound II): does not inhibit
Ki [8]: 200 nM
IC50 ([8]; FIG. 1): 1000 nM
inhibitory activity for human neutrophil elastase by comparison with pancreatic elastase [9]: five times higher
AUC ([10]; intravenous, read-out: intravenous AUC): 1360 to 3180 ng·h/mL
bioavailability ([10]; oral versus intravenous AUC, read-out: percentage bioavailability): 26 to 82%
AUC ([10]; oral, read-out: oral bioavailability (AUC)): 355 to 1400 ng·h/mL
half-life ([10]; rats, hamsters and dogs, read-out: biological half-life): 0.82 to 2 h
influence on trypsin activity [11]: not significantly influenced
influence on trypsin activity ([11]; listed as Compound II): does not inhibit
change in the water content of the pancreas ([12]; compound II alone (control 2), no caerulein): did not lead to a significant change
Compound: COc1ccc(C(=O)N[C@H](C(=O)N2CCC[C@H]2C(=O)N[C@H](C(=O)C(F)(F)F)C(C)C)C(C)C)cc1 [compound II]
morphological changes like those observed in acute pancreatitis ([1]; compound II alone, no caerulein): did not lead to any morphological changes
development of the interstitial edema and the intracellular vacuolization [1, 14]: prevented
number of infiltrating inflammatory cells in pancreas [1, 14]: greatly reduced
morphological differences in lung tissue (alveolar fluid, thickening, hyperemia, neutrophil infiltration) [2]: reduced
MPO activity in lung tissue ([2]; effect greater after twelve than four hours): significant reduction
influence on myeloperoxidase activity [5]: not significantly influenced; also recorded: excluded
reduction in MPO activity in pancreatic tissue [6]: more than 50%
amylase activity in serum [7]: significantly reduced
formation of pancreatic edemas (water content) ([12]; four and twelve hours after starting caerulein infusion): significant reduction
dose to inhibit 50% of the enzyme activity ([13]; intravenous administration): 0.59 mg/kg of body weight
dose to inhibit 50% of the enzyme activity ([13]; oral administration): 4.9 mg/kg of body weight
inhibition of neutrophil elastase ([13]; oral administration of 10 mg/kg of body weight): 84%
